Details: rat; liver microsomes; pH 7.4; 15.0 min; 1.0 µM

| Compound | half-life [min] |
| --- | --- |
| O=C1CCc2cc(S(=O)(=O)Nc3ccc(F)c(Cl)c3)ccc2N1 | 20.5 |
| CC1(C)C[C@@H]2C[C@@](C)(CN2S(=O)(=O)c2ccc(C(=O)Nc3ccc(Cl)c(S(=O)(=O)N4CCOCC4)c3)cc2)C1 | 3.95 |
| O=C(Nc1ncc(Cc2ccc(C(F)(F)F)cc2)s1)c1ccc(-c2cccnc2)o1 | > 30 |
| Oc1ccc(CN2CC(CNc3ccccc3)C3(C2)CN(c2ccccc2)C3)cc1 (stereo unspecified) | 3.01 |
| C=CCc1cccc(CNc2ccc(S(=O)(=O)Nc3nccs3)cc2)c1O | 19 |
| O=C(N/N=C/c1ccc(O)c(O)c1)c1cc2ccccc2cc1O | 15.1 |
| Fc1ccccc1Nc1nc(-c2ccncc2)nc2ccccc12 | 7.9 |
| CC(=O)c1c(C)[nH]c(C(=O)Nc2cccc([S+](=O)([O-])Nc3ccncc3)c2)c1C | > 30 |
| Cc1ccc(S(=O)(=O)Nc2ccccc2Nc2nc(-c3ccccc3)cs2)cc1 | 1.7 |
| C[S+](=O)([O-])c1ccc(-c2nc(C(=O)NCc3cccnc3)n3ccccc23)cc1 | > 30 |
| COCC(C)Nc1ncnc2c1cnn2-c1ccc(C)c(C)c1 (stereo unspecified) | 23.7 |
| CCCOC(=O)c1ccc(Oc2c(-c3ccc(O)cc3O)n[nH]c2C)cc1 | 3.04 |
| Cc1ccc(C(=O)[C@H]2CC[C@@H](C(=O)Nc3ccc(S(=O)(=O)Nc4nccs4)cc3)C2)cc1C | 2.5 |
| COCCNC(=O)c1ccc(-c2ncc3cnc(-c4cccc(F)c4)cn23)cc1 | > 30 |
| Cc1ccc(C(N)=O)cc1Nc1nccc(-c2cn(C(C)C)c3cnccc23)n1 | > 30 |
| Cc1ccc(S(=O)(=O)Nc2cnccc2C(=O)Nc2ccc(-c3nn[nH]n3)cc2)cc1 | > 30 |
| COCCOc1cnc2ccn([C@H](C)c3nnc4c(F)cc(-c5cnn(C)c5)cn34)c(=O)c2c1 | > 30 |
| Fc1cnc(-c2ccccc2C(F)F)nc1NCC1CCN(c2cnccn2)CC1 | 3.4 |
| COc1ccc(-n2nc(C3CCN(C(=O)c4ccccc4)CC3)[nH]c2=O)cc1 | > 30 |
| O=[S+]([O-])(Nc1cccc2cccnc12)c1ccc(NCc2ccc(Cl)cc2O)cc1 | 2.4 |
| Cc1ccc(-c2ccnc(N3CCC(C(N)=O)CC3)n2)cc1 | 2.35 |
| COc1cccc(-c2csc(NC(=O)c3ccncc3NS(=O)(=O)c3ccc(C)cc3)n2)c1 | 1.85 |
| COc1ccc(C2Nc3ccccc3C(=O)N2Cc2ccco2)cc1 (stereo unspecified) | 1.6 |
| COc1ncc(-c2n[nH]c3c2CC(=O)N(c2ccccc2)C3)cn1 | > 30 |
| CCC(C)N(C)C(=O)c1cc2ccccc2c(-c2ccccc2Cl)n1 (stereo unspecified) | 3.84 |
| CCCCCCOc1ccc(OC(=O)c2ccncc2)cc1 | 2.32 |

| Compound | half-life [min] |
| --- | --- |
| CCOc1ccc(CCNC(=O)c2cccc(C(=O)c3ccccc3)c2)cc1OCC | 1.66 |
| Cc1ccc(S(=O)(=O)Nc2ccc(OC(F)(F)F)cc2C(=O)Nc2nc(-c3ccccc3)cs2)cc1 | 24 |
| CC(=O)N1CCN(c2ccc(OCc3nn(C)c(C)c3-c3cccc4c(CCCOc5cc(C)c(Cl)c(C)c5)c(C(=O)O)n(Cc5cccnc5)c34)cc2)CC1 | 8.9 |
| CC(C)CCNC(=O)[C@H](CC(C)C)NC(=O)[C@H]1O[C@@H]1C(=O)O | > 30 |
| C[C@H]1CCC[C@H](O)CCC/C=C/c2cc(O)cc(O)c2C(=O)O1 | 15.2 |
| O=C(Nc1ccc(C(=O)Nc2nccs2)cc1)c1ccc2ccccc2c1 | 23 |
| Cc1ccc(S(=O)(=O)Nc2ccccc2C(=O)Nc2nccs2)cc1 | 1.6 |
| Cc1cccc(CS(=O)(=O)c2ncc(Cl)c(C(=O)Nc3nc4ccc(F)cc4s3)n2)c1 | 1.43 |
| NC1(c2ccc(NC(=O)c3ccnc(-c4cc(C(=O)O)ccn4)c3)cc2)CC1 | > 30 |
| CCN(CCCOc1ccc2c(Nc3cc(CC(=O)Nc4cccc(F)c4)[nH]n3)ncnc2c1)CCOP(=O)(O)O | > 30 |
| Cc1ccccc1S(=O)(=O)N1CCc2cc(-c3nc(NC(=O)Cc4ccc5c(c4)OCO5)sc3C)ccc21 | 5 |
| COc1c(C)cc(NC(=O)c2nn(Cc3ccc(F)cc3)c3c2CN(C(=O)c2ccc[nH]2)C[C@]3(C)C(N)=O)cc1C | > 30 |
| Cc1ccccc1C(=O)N1CCc2cc(-c3nc(NC(=O)Cc4ccc5ccccc5c4)sc3C)ccc21 | > 30 |
| COC(=O)c1cc(Cl)ccc1NC(=O)CSc1ncc(S(=O)(=O)c2ccc(Br)cc2)c(=O)[nH]1 | 18 |
| CS(=O)(=O)c1ccccc1-c1csc(N2CCC(C(N)=O)CC2)n1 | > 30 |
| NC(=O)c1ccc(-c2ncc3cnc(-c4cccc(F)c4)cn23)cc1 | 20.7 |
| C[S+](=O)([O-])c1ccc(-c2nc(C(=O)N3CCOCC3)n3ccccc23)cc1 | > 30 |
| Fc1cccc(CNc2nc(-c3ccccc3C(F)(F)F)nc3ccccc23)c1 | 2.55 |
| NC(=O)C1CCN(c2nc(-c3cccc(Cl)c3)cs2)CC1 | 1.88 |
| NC(=O)C1CCN(c2nc(-c3cc4ccccc4o3)cs2)CC1 | 4.21 |
| O=C1Nc2ccccc2/C1=C/c1ccc[nH]1 | 5.1 |
| Cc1ccc(S(=O)(=O)Nc2nc3ccc(C)cc3nc2Nc2ccc3c(c2)OCO3)cc1 | > 30 |
| O=C1Nc2ccc(I)cc2C1=Cc1cc(Br)c(O)c(Br)c1 | > 30 |
| CC(=O)c1c(C)[nH]c(C(=O)Nc2cccc([S+](=O)([O-])N3CC[C@@H](F)C3)c2)c1C | 3.2 |
| COc1cc2c(cc1OC)C(C[C@H]1CN(S(=O)(=O)c3cccc(C#N)c3)CC[C@H]1CC(=O)O)=NCC2 | > 30 |
| c1ccc(-c2nc(N3CCCCCC3)c3ccccc3n2)nc1 | 2.18 |

| Compound | half-life [min] |
| --- | --- |
| Cc1c(C(=O)NN2CCCCC2)nn(-c2ccc(Cl)cc2Cl)c1-c1ccc(Cl)cc1 | 5.9 |
| COc1cccc(C(=O)NCCSc2c(-c3ccc(F)cc3)[nH]c3ccccc23)c1OC | 1.26 |
| Cc1cccc(NC(=S)N2CCN(c3cccc(C(F)(F)F)c3)CC2)c1 | 6 |
| CCC(=O)NC(c1ccc(OC)cc1)c1cc(Cl)c2cccnc2c1O (stereo unspecified) | 4.41 |
| Cc1ccc(OCCn2c(CCNC(=O)N3CCCCC3)nc3ccccc32)cc1 | 1.7 |
| Nc1ccccc1CNc1ccc(S(=O)(=O)Nc2nccs2)cc1 | > 30 |
| COc1ccc(-c2noc(CSc3nnc(Cc4ccccc4)n3-c3ccc(F)cc3)n2)cc1 | 1.69 |
| COc1cccc(CNc2ccc(S(=O)(=O)Nc3ccc(C4CCNCC4)cc3)cc2)c1O | 29 |
| COc1cccc(CNc2ccc(S(=O)(=O)Nc3nc4ccccc4s3)cc2)c1O | > 30 |
| COc1cc2c(c(OC)c1OC)-c1ccc(SC)c(=O)cc1C(N)CC2 (stereo unspecified) | 9.88 |
| CCc1cccc(NC(=O)C(Cc2ccccc2)NS(=O)(=O)c2cccs2)c1 (stereo unspecified) | 1.44 |
| O=C1Nc2ccccc2C12CC2c1cc(Cl)c(O)c(Cl)c1 (stereo unspecified) | 9.8 |
| Cc1cc(C)nc(NC(=S)N2CCN(c3cccc(C(F)(F)F)c3)CC2)c1 | > 30 |
| C1CCc2nc3c(nc2C1)CCCC3 | > 30 |
| O=S(=O)(c1ccc(Cl)cc1)c1ccccn1 | > 30 |
| Cc1cnc(CNc2nc(-c3cccc(NS(C)(=O)=O)c3)nc3ccccc23)cn1 | 21 |
| NC(=O)NCC(=O)N[C@H]1CC[C@H](Nc2nccc(-c3ccncc3)n2)C1 | > 30 |
| Cc1ccccc1OCC(O)CO (stereo unspecified) | > 30 |
| CNc1nccc(-c2cccc3ccccc23)n1 | 7.7 |
| O=C(Nc1nc(-c2ccccc2)cs1)c1ccncc1NS(=O)(=O)c1ccc(C(F)(F)F)cc1 | 20 |
| Cc1cccc2nc(-c3ccccn3)c(Nc3ccc(F)cc3)n12 | 6.75 |
| O=S(=O)(Nc1nccs1)c1ccc(NCc2cc(F)ccc2O)cc1 | 12 |
| Clc1ccc2ncc(-c3cccc(NC4CNC4)n3)n2c1 | 13.6 |
| CC(=O)Nc1ccc(S(=O)(=O)Nc2nccs2)cc1 | > 30 |
| CN(Cc1cccs1)c1ncnc2ccc(-c3ccc4c(c3)OCO4)cc12 | 1.44 |
| CCCc1oc2ccc(NS(=O)(=O)c3ccc(OC)cc3)cc2c1C(=O)OCC | 1.37 |

| Compound | half-life [min] |
| --- | --- |
| O=C1CCCC2=C1C(c1ccccc1Cl)N=C(Nc1nc3ccccc3o1)N2 (stereo unspecified) | 9.38 |
| O=C(NCc1ccc(S(=O)(=O)c2cccc(C(F)(F)F)c2)cc1)c1cnc2[nH]ncc2c1 | > 30 |
| CC(=O)c1ccc(-c2csc(N3CCC(C(N)=O)CC3)n2)cc1 | 4.4 |
| NC(=O)C1CCN(c2nc(-c3cccc(Br)c3)cs2)CC1 | 1.77 |
| CCOc1ccc(CCNC(=O)c2cc3ccccc3o2)cc1OCC | 1.6 |
| CC(C)(C)c1ccc(S(=O)(=O)c2cnc(SCC(=O)Nc3ccc(F)c(Cl)c3)[nH]c2=O)cc1 | 5.92 |
| NC(=O)N1CCN(c2nc(-c3ccc(Br)cc3)cs2)CC1 | > 30 |
| CCN(C(=O)C(NS(=O)(=O)c1ccc(Br)s1)c1ccccc1)c1ccc(C)c(C)c1 (stereo unspecified) | 0.99 |
| O=C(Nc1nc(-c2ccc(Cl)s2)cs1)c1cccs1 | 19.5 |
| CCOC(=O)c1[nH]c(C)c(CCC(=O)N2CCN(c3cc(Cl)ccc3C)CC2)c1C | 1.8 |
| O=[S+]([O-])(Nc1ccc(-c2ccccc2)cc1)c1ccc(NCc2ccc(Cl)cc2O)cc1 | 18 |
| O=C(N[C@@H](Cc1ccccc1)C(=O)CCl)OCc1ccccc1 | 14 |
| NC(=O)C1CCN(c2nc(-c3ccccc3)cs2)CC1 | 3.88 |
| Cc1cccc(OCC(=O)Nc2ccc3nc(Nc4cccc(Cl)c4)cc(C)c3c2)c1 | > 30 |
| Cc1ccc(S(=O)(=O)Nc2cnccc2C(=O)Nc2ccc(-n3cncn3)cc2)cc1 | 21 |
| Cc1ccc(S(=O)(=O)Nc2ccc(Cl)c(C(=O)Nc3nc(-c4ccccc4)cs3)c2)cc1 | 18 |
| O=C(Nc1ccccc1C(=O)Nc1cccc(C(F)(F)F)c1)c1ccccc1 | > 30 |
| Cc1ccc(S(=O)(=O)Nc2cnccc2C(=O)Nc2ccc(S(=O)(=O)Nc3nccs3)cc2)cc1 | 5.3 |
| COc1ccc2[nH]cc(CCNC(=O)c3cnn(-c4ccc(C)cc4)c3C3CCN(C(=O)OC(C)(C)C)CC3)c2c1 | 1.65 |
| CCc1ccc(NC(=O)c2[nH]c(C)c(C(C)=O)c2C)cc1S(=O)(=O)Nc1ccc(C#N)cc1 | 14.7 |
| COC(=O)c1ccc([C@H]2c3[nH]c4ccccc4c3C[C@H](C(=O)OC)N2C(=O)CCl)cc1 | 4.02 |
| O=C1Nc2ccccc2/C1=C\c1cc(F)c(O)c(F)c1 | 23 |
| CC(C)CN(C[C@@H](O)[C@H](Cc1ccccc1)NC(=O)O[C@@H]1CO[C@H]2OCC[C@H]21)S(=O)(=O)c1ccc(N)cc1 | 13.8 |
